Test results published in patent US8354438B2, “Neurological functions” (priority 2001, dated 2013).
Where a name gives a salt, the structure may show the parent alone. Read-outs that look alike come from different tables or passages of the source. Marks after values point to notes of the source that are not given here.

Tests used:
[1] = test system: children with ASD; experiment: Subsequent long-term observation of children with ASD on DH; assay type: in vivo, human
Source text: We have subsequently followed over 100 children with ASD on DH for up to 20 months since the conclusion of this study. […] Further long-term use of cholinesterase inhibitors may lead to greater understanding of the possible ability to sustain new neuronal connections in a brain that has more neuronal plasticity than the elderly with Alzheimer's Disease.

[2] = test system: children with Autistic spectrum disorders; details: for Rec. Speech Age (N = 31) / CARS (N = 35) / Exp. Speech Age (N = 31): Group I combined with Group II
Source text: American Psychiatric Association. Diagnostic and Statistical Manual of Mental Disorders (4th ed.). Washington, D.C.: Author 1994. Diagnosis was confirmed by a pediatric neurologist after completing a comprehensive neurological evaluation and also by a clinical interview with a clinical psychologist. No child was excluded based upon intelligence estimate or developmental language level.
We included patients with abnormal electroencephalograns (EEGs) as they represent an important section of the ASD population. Hollander, E. et al., J. Clin. Psychiatry 2001; 62(7): 530-534. […] Hollander, E. et al., J. Clin. Psychiatry 2001; 62(7): 530-534 DiMartino, A. and Tuchman, R. F., Pediatric Neurology 2001; 25(3): 199-207. Other patients were maintained on corticosteroids (N=6, pulse-dose prednisone or prednisolone), CNS stimulants (N=8, dextroamphetamine/amphetamine or methylphenidate), antidepressants (N=7, fluoxetine hydrochloride or paroxetine), antipsychotics (N=4, risperidone), or alpha adrenergic blocking agents (N=9, clonidine).
The standard donepezil dosage recommendation of 5 milligrams was halved in accordance with pediatric protocols to arrive at a quantity of 2.5 milligrams. The duration of the double-blind, parallel trial was six weeks, at which time all subjects entered open-label treatment for an additional six weeks.
The dose was lowered to 1.25 milligrams or discontinued throughout the 12-week trial if adverse events persisted for more than one week (e.g., irritability, hyperactivity, or gastrointestinal problems). The maximum daily dose was 2.5 milligrams. The medication was adjusted by halving the dose (1.25 mg) if parents noted their children to have tolerable yet persistent gastrointestinal distress, hyperactivity, or irritability. Medication was discontinued if GI intolerability or changes in behavior were considered to be an adverse event (i.e., persisted for more than […]). Medication was administered at dinnertime, unless restlessness occurred in sleep, in which case administration was changed to an earlier time in the day. Dinnertime was selected as the preferred administration time in an attempt to alleviate gastrointestinal side effects observed in the dementia population.
All staff, including nurses, were blinded to the status of the patients on either placebo or drug during the six-week double-blind phase. Patient progress and side effects were monitored at the scheduled appointments by study coordinators, nursing staff, and the primary investigator. Gardner's Receptive One-Word Picture Vocabulary Test (ROWPVT), the EOWPVT-R, and the Childhood Autism Rating Scale (CARS) were administered at baseline, 6-week, and 12-week follow-up visits by the same study coordinator (R.T.):
Outcome Measures: The Receptive One-Word Picture Vocabulary Test, Gardner, M. F. Receptive One-Word Picture Vocabulary Test: ROWPVT. Novato, Calif.: Academic Therapy Publications 1985, examines a child's understanding of language and is an effective tool for assessing receptive language in children with expressive language difficulties. The test was developed for children ages two through twelve. Participants are shown a group of four pictures and asked to point to the picture corresponding to the word presented aurally by the clinician. The test is completed when the child makes six errors of eight consecutive items.
The Expressive One-Word Picture Vocabulary Test—Revised can be used as a tool to determine auditory-visual-verbal association ability as well as expressive language functioning in young children ages two through 12. Gardner, M. F. Expressive One-Word Picture Vocabulary Test (Revised): EOWPVT-R. Novato, Calif.: Academic Therapy Publications 1990. The test was developed to address general concrete concepts, grouping, abstract concepts, and descriptive concepts.

[3] = test system: Helicobacter pylori; details: Matsukura and Tanaka 2000; cited from earlier work
[4] = test system: carnosinase; details: compared with the parent compound carnosine; Boldyrev 2000; cited from earlier work
[5] = Group I (DH), Baseline to Week 6, placebo group 30%
[6] = Group I (DH, DH) N = 23, BASELINE
[7] = Group I (DH, DH), DH 2.5 milligrams, 6-WEEK, p < .05, BL compared to 6 week
[8] = Group I (DH, DH), DH 2.5 milligrams, 12-WEEK, p < .05, BL compared to 6 and 12 week

## COc1cc2c(cc1OC)C(=O)C(CC1CCN(Cc3ccccc3)CC1)C2 (stereo not shown) [DH, donepezil hydrochloride]
[1]; over 100 children with ASD on DH for up to 20 months
  long-term deficits or down-regulation effect: No obvious long-term deficits or suspected down-regulation effect
[1]; patients stopped the medication after 6 additional months
  regressions or lost skills after stopping the medication: no patients had major regressions or lost skills
[2]; [5]
  children with CARS change scores ([Baseline]-[6 Week score]) indicating improvement of 3.0 or greater: 50%
  children with clinically meaningful worsening of CARS scores: 12.5%
[2]; [6]
  CARS: 34.7 (SD = 7.7)
  Exp. Speech Age (mos.): 35.7 (SD = 27.8) mos.
  Rec. Speech Age (mos.): 38.8 (SD = 23.5) mos.
[2]; Group I (DH, DH), DH 2.5 milligrams, 6-WEEK
  CARS: 33.3 (SD = 8.0)
[2]; [7]
  Exp. Speech Age (mos.): 43.3 (SD = 27.2)* mos.
  Rec. Speech Age (mos.): 50.3 (SD = 27.0)* mos.
[2]; [8]
  Exp. Speech Age (mos.): 42.5 (SD = 28.5)*** mos.
  Rec. Speech Age (mos.): 49.7 (SD = 34.2)*** mos.
[2]; Group I (DH, DH), DH 2.5 milligrams, 12-WEEK, p < .05, BL compared to 12 week
  CARS: 30.8 (SD = 7.9)**
[2]; 6-weeks DH, p value .002
  Rec. Speech Age (N = 31): 53.2 (SD = 25.8)
[2]; 6-weeks DH, p value .004
  CARS (N = 35): 32.2 (SD = 8.5)
[2]; 6-weeks DH, p value .044
  Exp. Speech Age (N = 31): 43.6 (SD = 31.8)
[2]; BASELINE before six weeks DH
  CARS (N = 35): 34.7 (SD = 7.4)
  Exp. Speech Age (N = 31): 39.3 (SD = 27.9)
  Rec. Speech Age (N = 31): 43.7 (SD = 22.2)
[2]; Group II (Placebo, DH): six weeks placebo then six weeks DH, 12-WEEK, end of placebo 33.8 (SD = 32.9), reduced N (=16), p < .05
  Exp. Speech Age (mos.): 40.9 (SD = 38.8)***^@ mos.
[2]; Group II (Placebo, DH): six weeks placebo then six weeks DH, 12-WEEK, end of placebo 39.83 (SD = 27), reduced N (=16), p < .05, 6 compared to 12 week
  Rec. Speech Age (mos.): 87.37 (SD = 14.2)**^@ mos.
[2]; Group II (Placebo, DH): six weeks placebo then six weeks DH, 12-WEEK, end of placebo (6-WEEK) 32.9 (SD = 7.7), p < .05
  CARS: 30.9 (SD = 9.1)*
[2]; of nine patients dropped
  patients dropped from the study after the first 6 weeks who had been on DH: 6/9
[2]; of the 6 dropped patients on DH
  patients discontinued due to diarrhea or stomach cramping: 2 patients

## NCCC(=O)[N-][C@@H](Cc1c[nH]cn1)C(=O)[O-].[Zn+2] [L-CAZ]
[3]
  Helicobacter pylori inhibition: inhibited

## CC(=O)NCCC(=O)N[C@@H](Cc1cnc[nH]1)C(=O)O [N-acetylcarnosine]
[4]
  rate of hydrolysis: negligible

## NCCC(=O)NCCc1c[nH]cn1 [carcinine]
[4]
  rate of hydrolysis: negligible

## Cn1cncc1C[C@H](NC(=O)CCN)C(=O)O [ophidine, β-Alanlyl-3-methyl-L-histidine]
[4]
  rate of hydrolysis: much more slowly
